From ChEMBL document CHEMBL4130353, “2-Substituted 3,7,8-trimethylnaphtho[1,2-b]furan-4,5-diones as specific L-shaped NQO1-mediated redox modulators for the treatment of non-small cell lung cancer” (Eur J Med Chem, 2017)
Converted amounts (≈) assume the structure as drawn. The source made the active and inactive calls. The rule behind the calls is not given here.

Tests used:
[1] = molecular target: NAD(P)H dehydrogenase [quinone] 1 (Homo sapiens) (UniProt P15559); assay: Substrate activity at recombinant human NQO1 expressed in Escherichia coli assessed as reduction rate by measuring umol of NADPH utilized per umol of enzyme at 10 uM preincubated for 3 mins followed by NADPH addition measured at 2 secs interval for 5 mins by UV-Vis spectroscopy
NAD(P)H dehydrogenase [quinone] 1 (Homo sapiens), sequence (P15559 whole entry): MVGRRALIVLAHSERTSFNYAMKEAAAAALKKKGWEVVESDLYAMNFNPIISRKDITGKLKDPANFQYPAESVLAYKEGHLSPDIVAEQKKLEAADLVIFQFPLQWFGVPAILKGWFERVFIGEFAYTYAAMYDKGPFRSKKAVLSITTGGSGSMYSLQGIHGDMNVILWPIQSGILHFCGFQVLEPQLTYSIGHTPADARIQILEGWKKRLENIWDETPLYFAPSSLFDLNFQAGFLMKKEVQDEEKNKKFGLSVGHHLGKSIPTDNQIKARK

[2] = molecular target: T1, NADPH--cytochrome P450 reductase (Homo sapiens, UniProt P16435); assay: Substrate activity at human CPR expressed in baculovirus expression system assessed as reduction rate by measuring umol of NADPH utilized per umol of enzyme at 10 uM preincubated for 3 mins followed by NADPH addition measured at 2 secs interval for 5 mins by UV-Vis spectroscopy; type: ADME
T1 sequence (P16435 whole entry): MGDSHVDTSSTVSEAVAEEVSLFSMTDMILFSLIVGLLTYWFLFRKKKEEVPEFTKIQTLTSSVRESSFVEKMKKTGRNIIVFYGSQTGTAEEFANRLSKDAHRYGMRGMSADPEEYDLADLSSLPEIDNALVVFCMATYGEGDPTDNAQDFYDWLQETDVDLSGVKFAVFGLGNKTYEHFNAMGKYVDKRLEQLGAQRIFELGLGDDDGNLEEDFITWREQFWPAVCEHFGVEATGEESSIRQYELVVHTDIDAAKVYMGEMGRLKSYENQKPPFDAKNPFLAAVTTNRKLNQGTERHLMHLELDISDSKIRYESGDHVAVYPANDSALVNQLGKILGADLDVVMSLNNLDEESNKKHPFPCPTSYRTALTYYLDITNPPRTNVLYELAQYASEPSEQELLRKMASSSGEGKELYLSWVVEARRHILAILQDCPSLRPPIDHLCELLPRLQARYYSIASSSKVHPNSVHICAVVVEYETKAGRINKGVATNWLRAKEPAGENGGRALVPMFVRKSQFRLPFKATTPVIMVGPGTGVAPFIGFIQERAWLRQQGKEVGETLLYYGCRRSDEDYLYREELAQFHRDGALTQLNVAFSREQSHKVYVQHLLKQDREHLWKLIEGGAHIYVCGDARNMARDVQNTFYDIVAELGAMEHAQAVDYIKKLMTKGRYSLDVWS

[3] = Lipophilicity, log D of the compound at pH 7.4; type: physicochemical; settings: buffer
[4] = Intrinsic solubility of the compound; type: physicochemical; settings: read-out: Intrinsic_solubility
A549 [5] = assay: Cytotoxicity against human A549 cells assessed as cell growth inhibition preincubated for 24 hrs followed by compound washout measured after 72 hrs by MTT assay; type: functional, cell-based
NCI-H1299 = assay: Cytotoxicity against human NCI-H1299 cells assessed as assessed as cell growth inhibition for 24 hrs followed by compound washout measured after 72 hrs by MTT assay; type: functional, cell-based
MCF7 = assay: Cytotoxicity against human MCF7 cells assessed as cell growth inhibition preincubated for 24 hrs followed by compound washout measured after 72 hrs by MTT assay; type: functional, cell-based
HEK293 = assay: Cytotoxicity against HEK293 cells assessed as cell growth inhibition preincubated for 24 hrs followed by compound washout measured after 72 hrs by MTT assay; type: functional, cell-based; settings: Homo sapiens
A549/TR = assay: Cytotoxicity against human A549/TR cells assessed as cell growth inhibition preincubated for 24 hrs followed by compound washout measured after 72 hrs by MTT assay; type: functional, cell-based
A549 [6] = assay: Cytotoxicity against human A549 cells assessed as cell growth inhibition preincubated for 24 hrs followed by compound washout measured after 72 hrs in presence of NQO1 inhibitor DIC by MTT assay; type: functional, cell-based
NCI-H596 = assay: Cytotoxicity against human NCI-H596 cells assessed as cell growth inhibition preincubated for 24 hrs followed by compound washout measured after 72 hrs by MTT assay; type: functional, cell-based
[7] = molecular target: NAD(P)H dehydrogenase [quinone] 1 (Homo sapiens) (UniProt P15559); assay: Substrate activity at NQO1 in human A549 cells assessed as induction of enzyme-catalyzed ROS production at 10 uM after 1 to 3 hrs by DCFH-DA-based flow cytometry; type: cell-based
[8] = molecular target: NAD(P)H dehydrogenase [quinone] 1 (Homo sapiens) (UniProt P15559); assay: Substrate activity at NQO1 in human A549 cells assessed as induction of enzyme-catalyzed ROS production at 10 uM after 1 to 3 hrs in presence of NAC by DCFH-DA-based flow cytometry; type: cell-based
[9] = molecular target: NAD(P)H dehydrogenase [quinone] 1 (Homo sapiens) (UniProt P15559); assay: Substrate activity at NQO1 in human A549 cells assessed as induction of enzyme-catalyzed ROS production at 10 uM after 1 to 3 hrs in presence of DIC by DCFH-DA-based flow cytometry; type: cell-based
L02 = assay: Induction of intracellular ROS levels in human L02 cells at 10 uM after 1 to 3 hrs by DCFH-DA-based flow cytometry; type: cell-based; settings: l02, 10 µM
A549 [10] = assay: Effect on total AKT protein levels in human A549 cells at 10 uM after 3 hrs in presence of NAC by Western blot analysis relative to control; type: ADME, cell-based; settings: a549, 3 h
[11] = molecular target: NAD(P)H dehydrogenase [quinone] 1 (Homo sapiens) (UniProt P15559); assay: Substrate activity at NQO1 in human A549 cells assessed as induction of ROS-induced Akt phosphorylation at […] at 5 uM after 3 hrs by Western blot analysis relative to control; type: cell-based
[12] = molecular target: NAD(P)H dehydrogenase [quinone] 1 (Homo sapiens) (UniProt P15559); assay: Substrate activity at NQO1 in human A549 cells assessed as induction of ROS-induced Akt phosphorylation at […] at 10 uM after 3 hrs by Western blot analysis relative to control; type: cell-based
[13] = molecular target: NAD(P)H dehydrogenase [quinone] 1 (Homo sapiens) (UniProt P15559); assay: Substrate activity at NQO1 in human A549 cells assessed as induction of ROS-induced JNK phosphorylation at 5 uM after 3 hrs by Western blot analysis relative to control; type: cell-based
[14] = molecular target: NAD(P)H dehydrogenase [quinone] 1 (Homo sapiens) (UniProt P15559); assay: Substrate activity at NQO1 in human A549 cells assessed as induction of ROS-induced p38 phosphorylation at T180/Y182 at 1 uM after 3 hrs by Western blot analysis relative to control; type: cell-based
[15] = molecular target: NAD(P)H dehydrogenase [quinone] 1 (Homo sapiens) (UniProt P15559); assay: Substrate activity at NQO1 in human A549 cells assessed as induction of ROS-induced p38 phosphorylation at T180/Y182 at 5 uM after 3 hrs by Western blot analysis relative to control; type: cell-based
[16] = molecular target: NAD(P)H dehydrogenase [quinone] 1 (Homo sapiens) (UniProt P15559); assay: Substrate activity at NQO1 in human A549 cells assessed as induction of ROS-induced p38 phosphorylation at T180/Y182 at 10 uM after 3 hrs by Western blot analysis relative to control; type: cell-based
A549 [17] = assay: Effect on total ERK protein levels in human A549 cells at 10 uM after 3 hrs in presence of DIC by Western blot analysis relative to control; type: ADME, cell-based; settings: a549, 3 h
[18] = molecular target: NAD(P)H dehydrogenase [quinone] 1 (Homo sapiens) (UniProt P15559); assay: Substrate activity at NQO1 in human A549 cells assessed as induction of ROS-induced ERK phosphorylation at 10 uM after 3 hrs by Western blot analysis relative to control; type: cell-based
[19] = molecular target: NAD(P)H dehydrogenase [quinone] 1 (Homo sapiens) (UniProt P15559); assay: Substrate activity at NQO1 in human A549 cells assessed as induction of ROS-induced Akt phosphorylation at […] after 3 hrs by Western blot analysis; type: cell-based
A549 [20] = assay: Antitumor activity against human A549 cells xenografted in athymic nude mouse assessed as tumor growth inhibition at 50 mg/kg, iv administered every other day for 3 weeks measured every day during compound dosing relative to control; type: functional; settings: 504 h, read-out: TGI
Mus musculus = assay: Toxicity in athymic nude mouse xenografted with human A549 cells assessed as effect on body weight at 50 mg/kg, iv administered every other day for 3 weeks; type: organism-based; settings: in vivo, 504 h

In the case of `Cc1cc2c(cc1C)-c1oc(CNc3ccc(CN4CCOCC4)cc3)c(C)c1C(=O)C2=O`, the Activity [1] is reported as 1520 µmol/min, the Activity [2] is reported as 73 µmol NADPH/min/µmol enzyme and the logD [3] is reported as 3.1. It also gave a solubility [4] of 360 µg/mL (≈ 810 µM), an IC50 (A549 [5]) of 2.1 µM and an IC50 (NCI-H1299) of 3.8 µM. It also gave an IC50 (MCF7) of 4.7 µM, an IC50 (HEK293) of 3.9 µM and an IC50 (A549/TR) of 2.2 µM. The IC50 (A549 [6]) was over 50 µM, the IC50 (NCI-H596) was 30 µM and the Activity [7] was “Active”. The Activity [8] was “inactive”, the Activity [9] was “inactive” and the Activity (L02) was “Non-Toxic”. The “fold change (FC)” value (A549 [10]) was 1.07, the fold change (FC) [11] was 2.96 and the fold change (FC) [12] was 4.18. It also gave a fold change (FC) [13] of 25.4, a fold change (FC) [14] of 11.1 and a fold change (FC) [15] of 12.1. For the same compound, the fold change (FC) [16] was 16.4, the “fold change (FC)” value (A549 [17]) was 0.87 and the fold change (FC) [18] was 2.49. The Activity [19] was “Dose-dependent effect”, the inhibition in vivo at 50 mg/kg (A549 [20]) was 90.3% and the Activity (Mus musculus) was “Non-Toxic”.
